Structures can show the parent of a compound that is named as a salt.
target: T1, Human P2X2 receptor (P2X2R) (Homo sapiens, UniProt Q9UBL9); assay: Yo-Pro-1 uptake assay, P2X2R transfected HEK-293 cells; assay type: cell-based; details: 5 μM ATP stimulus
T1 construct: expressed in transfected cells; host or cells: HEK-293
T1 sequence (Q9UBL9 1-471): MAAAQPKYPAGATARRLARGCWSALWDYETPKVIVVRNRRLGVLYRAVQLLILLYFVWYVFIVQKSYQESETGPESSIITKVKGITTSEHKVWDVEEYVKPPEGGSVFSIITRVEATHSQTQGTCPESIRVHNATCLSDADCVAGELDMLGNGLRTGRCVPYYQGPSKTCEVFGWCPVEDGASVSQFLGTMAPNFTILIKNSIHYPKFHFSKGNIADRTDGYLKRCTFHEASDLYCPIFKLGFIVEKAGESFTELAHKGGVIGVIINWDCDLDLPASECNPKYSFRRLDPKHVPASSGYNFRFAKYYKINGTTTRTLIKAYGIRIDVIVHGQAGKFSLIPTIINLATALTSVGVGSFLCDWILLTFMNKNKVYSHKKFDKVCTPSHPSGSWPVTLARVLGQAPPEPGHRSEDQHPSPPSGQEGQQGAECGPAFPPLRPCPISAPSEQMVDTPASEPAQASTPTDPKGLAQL
Description: Yo-Pro-1 Iodide (Cat. No Y3603 from Fisher Scientific) is a fluorescent DNA-binding dye with a MW of 629 Da. This method is based upon the Yo-Pro-1 entrance to cells through the dilated or “large pore form” of P2X7R and its binding to intracellular DNA whereby it increases its fluorescence intensity (J. Pharmacol. Exp. Ther. 308, 1053-1061). The dye has an absorption spectrum compatible with excitation at 488 nm by argon laser sources and its emission wavelength is in the range of 515-575 nm. This Yo-Pro-1 uptake was measured in HEK-293 cells transiently transfected with P2X7R (J. Biol. Chem. 290, 7930-7942). In Brief, HEK-293 cells were seeded in growth medium at approximately 20,000 cells/well in a 96-well plate on day 1. Transfection was performed on day 2 using Lipofectamine 2000 with the P2X7R DNA plasmid at the concentration of 1.7 μg/ml. The transfection solution was replaced with the growth medium 4 hours later. Fluorescent assays were conducted on day 4. On day 4, the medium was removed, the cells were washed with phosphate buffered saline (PBS) (Cat. No. MT21040CV from Fisher Scientific). Then, 25 μl of PBS were first loaded to each well followed by 25 μl of various test compounds. The third 25 μl of solution contained a mixture of Yo-Pro-1 and stimulus bzATP (2′(3′)-O-(4-Benzoylbenzoyl)adenosine-5′-triphosphate tri(triethylammonium) salt). The final concentration of Yo-Pro-1 was 2.5 μM and of bzATP 30 μM. Fluorescence increases were measured every 30 minutes in a microplate device with excitation at 475 nm and emission wavelength in the range of 500-550 nm. PPADS (Pyridoxalphosphate-6-azophenyl-2′,4′-disulfonic acid tetrasodium) was used as the positive control. The wells with no test compounds added nor bzATP and only containing PBS and Yo-Pro-1 were served as the negative control (N Contl). The positive control (P Contl) wells were the same as N Contl but contained the stimulus, bzATP in this case.
Data used for analysis were from microplate readings 1 hour after bzATP stimulation. The result of each well was first normalized by its corresponding base microplate reading. The base microplate reading was the first reading right after all components were added. Then, the negative control signal was subtracted from. In the negative control, the test compound and the stimulus were replaced by PBS. An average of six highest values of the plate (AVG) were considered as 100% and the value of each well was divided by AVG and presented as the relative values in percentages.
Human P2X2 receptor (P2X2R) construct (J. Biol. Chem. 290, 7930-7942) was transiently transfected to HEK-293 cells and the Yo-Pro-1 assay was performed as described above. When 5 μM ATP was used as the stimulus, the elevation of receptor mediated activity can be seen in 10 minutes.

SMILES	Percentage of activity remains in the presence of the compound at 5 μM, P2X2R (Yo-Pro-1 Assay) [%]
Cc1nc(N=Nc2ccc(S(=O)(=O)[O-])cc2S(=O)(=O)[O-])c(COP(=O)([O-])[O-])c(C=O)c1O.[Na+].[Na+].[Na+].[Na+] [PPADS, Pyridoxalphosphate-6-azophenyl-2′,4′-disulfonic acid tetrasodium, reference compound]	29.6

same assay, conditions: HEK293, compound at 5 μM, 5 μM ATP stimulus, read-out: Percentage of activity remains in the presence of the compound at 5 μM, P2X2R (Yo-Pro-1 Assay)

SMILES	remaining activity at 5 µM [%]
CS(=O)(=O)c1ccc(N2CCCC(NC(=O)CCc3ccccc3)C2)cc1 (centres unmarked) [#1]	44
COc1ccc(S(=O)(=O)N2CCCC(NC(=O)CCc3ccccc3)C2)cc1 (centres unmarked) [#2]	54.6
O=C(CCc1ccccc1)NC1CCCN(S(=O)(=O)c2ccc(F)cc2)C1 (centres unmarked) [#3]	57
O=C(CCc1ccccc1)NC1CCCN(S(=O)(=O)c2ccc(OCc3ccccc3)cc2)C1 (centres unmarked) [#4]	64.9
O=C(CCc1ccccc1)NC1CCCN(S(=O)(=O)c2ccc(N3CCCCC3)cc2)C1 (centres unmarked) [#5]	55.5
CC(C)COc1ccc(S(=O)(=O)N2CCCC(NC(=O)CCc3ccccc3)C2)cc1 (centres unmarked) [#6]	54.3
CC(C)S(=O)(=O)c1ccc(N2CCCC(NC(=O)CCc3ccccc3)C2)cc1 (centres unmarked) [#7]	77.6
O=C(CCc1ccccc1)NC1CCCN(S(=O)(=O)Cc2ccc(Br)cc2)C1 (centres unmarked) [#8]	63.8
O=C(CCc1ccccc1)NC1CCCN(S(=O)(=O)c2ccc(-n3cc(Br)cn3)cc2)C1 (centres unmarked) [#9]	76.9
O=S(=O)(c1ccccc1)C1CN(S(=O)(=O)c2ccc(N3CCCCC3)cc2)C1 [#10]	38.2
O=S(=O)(c1ccccc1)C1CN(S(=O)(=O)c2ccc(N3CCOCC3)cc2)C1 [#11]	44
O=C(CCc1ccccc1)NC1CCCN(S(=O)(=O)c2ccc(N3CCOCC3)cc2)C1 (centres unmarked) [#12]	41.8
O=C(CCc1ccccc1)NC1CCCN(S(=O)(=O)c2ccc(N3CCCC3)cc2)C1 (centres unmarked) [#13]	48.9
CN(C)c1ccc(S(=O)(=O)N2CCCC(NC(=O)CCc3ccccc3)C2)cc1 (centres unmarked) [#14]	54.3
CCCCNc1ccc(S(=O)(=O)N2CCCC(NC(=O)CCc3ccccc3)C2)cc1 (centres unmarked) [#15]	85
O=C1CCC(N2Cc3c(NC(=O)CCc4ccccc4)cccc3C2=O)C(=O)N1 (centres unmarked) [#16]	83.8
COCCOc1ccc(S(=O)(=O)N2CCCC(NC(=O)CCc3ccccc3)C2)cc1 (centres unmarked) [#17]	91.6
CN1CCN(c2ccc(S(=O)(=O)N3CCCC(NC(=O)CCc4ccccc4)C3)cc2)CC1 (centres unmarked) [#18]	52.7
O=C(NCCc1ccccc1)C1CCN(S(=O)(=O)c2ccc(N3CCCCC3)cc2)CC1 [#20]	61.5
O=C(NCCc1ccccc1)C1CCN(S(=O)(=O)c2ccc(N3CCCC3)cc2)CC1 [#21]	50.8
CC(C)(C)OC(=O)N1CCN(c2ccc(S(=O)(=O)N3CCC(C(=O)NCCc4ccccc4)CC3)cc2)CC1 [#22]	72
O=C(NCCc1ccccc1)C1CCN(S(=O)(=O)c2ccc(N3CCOCC3)cc2)CC1 [#23]	77.1
O=C(NCCc1ccccc1)C1CCCN(S(=O)(=O)c2ccc(N3CCOCC3)cc2)C1 (centres unmarked) [#24]	70.9
O=C(NCCc1ccccc1)C1CCCN(S(=O)(=O)c2ccc(N3CCCC3)cc2)C1 (centres unmarked) [#25]	79.3
CCCCNc1ccc(S(=O)(=O)N2CCC(C(=O)O)CC2)cc1 [#27]	55.4
NC(=O)c1cc(Br)cc(N2CCOCC2)c1 [#28]	77.3

SMILES	remaining activity at 5 µM [%]
O=C(CCc1ccccc1)N1CCNCC1 [#29, hydrochloride]	89.4
O=C(CCc1ccccc1)N1CCN(S(=O)(=O)c2ccc(F)cc2)CC1 [#30]	74.9
CC(C)(C)OC(=O)N1CCN(c2ccc(S(=O)(=O)N3CCN(C(=O)CCc4ccccc4)CC3)cc2)CC1 [#31]	64
O=C(CCc1ccccc1)N1CCN(S(=O)(=O)c2ccc(N3CCOCC3)cc2)CC1 [#32]	79.9
O=C(CCc1ccccc1)N1CCN(S(=O)(=O)c2ccc(NC3CCCCC3)cc2)CC1 [#33]	60.9
O=C(CCc1ccccc1)N1CCN(S(=O)(=O)c2ccc(N3CCCCC3)cc2)CC1 [#34]	72.4
O=C(CCc1ccccc1)N1CCN(S(=O)(=O)c2ccc(N3CCCC3)cc2)CC1 [#35]	70.6
CC(C)(C)OC(=O)N1CCN(c2ccc(S(=O)(=O)N3CCCC(C(=O)NCCc4ccccc4)C3)cc2)CC1 (centres unmarked) [#36]	61.8
CCOc1ccc(S(=O)(=O)N2CCCC(NC(=O)CCc3ccccc3)C2)cc1 (centres unmarked) [#37]	58.1
O=C(CCc1ccccc1)NC1CCCN(S(=O)(=O)c2ccc(N3CCC(Oc4ccccc4)CC3)cc2)C1 (centres unmarked) [#38]	57.6
CC(C)OC1CCN(c2ccc(S(=O)(=O)N3CCCC(NC(=O)CCc4ccccc4)C3)cc2)CC1 (centres unmarked) [#39]	66.3
CC1CCN(c2ccc(S(=O)(=O)N3CCCC(NC(=O)CCc4ccccc4)C3)cc2)CC1 (centres unmarked) [#40]	69.1
CC(C)(C)OC(=O)N1CCC(C2CCN(c3ccc(S(=O)(=O)N4CCCC(NC(=O)CCc5ccccc5)C4)cc3)CC2)CC1 (centres unmarked) [#41]	61.4
O=C(CCc1ccccc1)NC1CCCN(S(=O)(=O)c2ccc(N3CCC(C(F)(F)F)CC3)cc2)C1 (centres unmarked) [#42]	59.2
O=C(CCc1ccccc1)NC1CCCN(S(=O)(=O)c2ccc(F)c(Cl)c2)C1 (centres unmarked) [#43]	71.1
CC1CCCN(c2ccc(S(=O)(=O)N3CCCC(NC(=O)CCc4ccccc4)C3)cc2)C1 (centres unmarked) [#44]	61.4
O=C(CCc1ccccc1)NC1CCCN(S(=O)(=O)c2ccc(N3CCCCC3)c(Cl)c2)C1 (centres unmarked) [#45]	83.3
O=C(CCc1ccccc1)NC1CCCN(S(=O)(=O)c2ccc(N3CCC(F)(F)CC3)cc2)C1 (centres unmarked) [#46]	39.1
CC1CCCCN1c1ccc(S(=O)(=O)N2CCCC(NC(=O)CCc3ccccc3)C2)cc1 (centres unmarked) [#47]	69.7
CC(C)N(C(C)C)S(=O)(=O)c1ccc(N2CCCC(NC(=O)CCc3ccccc3)C2)cc1 (centres unmarked) [#49]	55.9
O=C(CCc1ccccc1)NC1CCCN(c2ccc(S(=O)(=O)Nc3ccccc3)cc2)C1 (centres unmarked) [#50]	59.7
O=C(CCc1ccccc1)NC1CCCN(c2ccc(S(=O)(=O)NC3CCCCC3)cc2)C1 (centres unmarked) [#51]	46.6
O=C(CCc1ccccc1)NC1CCCN(c2ccc(S(=O)(=O)NCc3ccco3)cc2)C1 (centres unmarked) [#52]	45.8
NS(=O)(=O)c1ccc(N2CCCC(NC(=O)CCc3ccccc3)C2)cc1 (centres unmarked) [#53]	70.9
O=C(CCc1ccccc1)NC1CCCN(c2ccc(S(=O)(=O)N3CCCCC3)cc2)C1 (centres unmarked) [#54]	81.7
O=C(CCc1ccccc1)NC1CCCN(c2ccc(S(=O)(=O)N3CCCC3)cc2)C1 (centres unmarked) [#55]	85.4
